Measured values reported in patent US20080125453A1 (TIBER LABORATORIES, LLC, priority 2001, published 2008).
Structures can show the parent of a compound that is named as a salt.

Tests used:
[1] = type: physicochemical
Description: The salt of the active ingredient, corresponding to an amount of free base present in a final batch size of 1 kg was dissolved in 100 ml of purified water. 120 ml of purified water was placed in a 600 ml beaker and stirred. While stirring, 3 g of MAS was added in small portions to obtain a dispersion. The amount of MAS used is a part of the total amount of MAS to be used in the formulation. Once the MAS was dispersed, tannic acid was added to the mixture and stirred to form a uniform dispersion. Three different batches of the MAS/tannic acid dispersion in purified water were prepared for each active. In the three batches, the amount of tannic acid used in the batch may vary from an amount equal to that of the free base, to two time to three times that of the free base present in the initial salt solution.
The salt solution was then added in small portions, under light stirring, to the MAS/Tannic acid dispersion. After all of the salt solution was added, the volume was made up to 250 ml with purified water and stirring was continued for a period of 10 minutes.
The MAS was used in this step to serve as an adherent or a solid support for the tannic acid molecules to facilitate the conversion process.

[2] = background statement; cited from earlier work

Compound	solubility in water [2]	other results
COc1ccc(CN(CCN(C)C)c2ccccn2)cc1 [pyrilamine]		precipitate formation on addition to MAS/tannic acid dispersion ([1]; purified water, at all three concentrations of tannic acid (1x, 2x, 3x the free base)): copious amounts of precipitate
CNC[C@H](O)c1cccc(O)c1 [phenylephrine]		solubility of the tannate salt in purified water [1]: partial solubility
COc1ccc(CN(CCN(C)C)c2ccccn2)cc1 [maleate salt, N-[(4-methoxyphenyl)methyl]-N′,N′-dimethyl- -N-2-pyridinyl-1,2-ethanediamine]	slightly soluble	
CNC[C@H](O)c1cccc(O)c1 [Phenylephrine hydrochloride]	freely soluble	
COc1ccc(CN(CCN(C)C)c2ccccn2)cc1 [Pyrilamine hydrochloride, N-[(4-methoxyphenyl)methyl]-N′,N′-dimethyl- -N-2-pyridinyl-1,2-ethanediamine]	freely soluble	
